Measurements: US8481077B2, “Microbubbles and methods for oxygen delivery” (The Trustees of Columbia University in the City of New York, priority 2007, dated 2013)

How the values were obtained:
[1] = main phase transition temperature, solid to fluid phase; cited from earlier work
[2] = Main phase transition temperature (Tm) and reduced temperature (TR) of microbubble lipids; format: physicochemical; details: reduced temperature T/Tm in Kelvin
Experimental: As used herein, the “phase transition temperature” (Tm) refers to the temperature at which lipid assemblies transition from a solid (crystalline) phase to a fluid (liquid crystalline) phase. For example, 1,2-Dipentadecanolyl-sn-Glycero-3-Phosphoeholine (C15) has a Tm of 33° C. Thus this lipid is in the solid phase at room temperature and transitions to the fluid phase when it is injected into the body.
Shell cohesion, as a function of acyl chain length, may be represented by the reduced temperature (TR), which is equal to the ratio of the ambient temperature (or “working temperature”) (T) to the main phase transition temperature (Tm) of the lipid (in Kelvin). For TR>1, the shell is in an expanded (fluid) state at the working temperature. For TR<1, the shell is in a condensed (solid) state at the working temperature. See Table 2 for a list of lipids with their corresponding main phase transition temperatures (Tm) and reduced temperatures (TR).

[3] = system: desaturated, venous whole blood; details: 0.2 mL added to 2 mL blood, one inversion
Experimental: In one test tube, 0.2 mL of the microbubbles were added to 2 mL of desaturated, venous whole blood.
The test tubes were inverted once, and co-oximetry and blood gas values measurements were taken using a Radiometer ABL800 X blood gas machine.

| Structure (SMILES) | Tm (° C.) [1] | TR at 25° C. [2] | TR at 37° C. [2] | PCO2 [3] | PO2 [3] | oxygenated hemoglobin (oxyHb) [3] | pH [3] |
| --- | --- | --- | --- | --- | --- | --- | --- |
| CCCCCCCCCCCC(=O)OC[C@H](COP(=O)([O-])OCC[N+](C)(C)C)OC(=O)CCCCCCCCCCC [C12, 1,2-Dilauroyl-sn-Glycero-3-Phosphocholine] | −1 °C | 1.10 | 1.14 |  |  |  |  |
| CCCCCCCCCCCCCC(=O)OC[C@H](COP(=O)([O-])OCC[N+](C)(C)C)OC(=O)CCCCCCCCCCCCC [C14, 1,2-Dimyristoyl-sn-Glycero-3-Phosphocholine] | 23 °C | 1.01 | 1.05 |  |  |  |  |
| CCCCCCCCCCCCCCC(=O)OC[C@H](COP(=O)([O-])OCC[N+](C)(C)C)OC(=O)CCCCCCCCCCCCCC [C15, 1,2-Dipentadecanoyl-sn-Glycero-3-Phosphocholine] | 33 °C | 0.97 | 1.01 |  |  |  |  |
| CCCCCCCCCCCCCCCC(=O)OC[C@H](COP(=O)([O-])OCC[N+](C)(C)C)OC(=O)CCCCCCCCCCCCCCC [C16, 1,2-Dipalmitoyl-sn-Glycero-3-Phosphocholine] | 41 °C | 0.95 | 0.99 |  |  |  |  |
| CCCCCCCCCCCCCCCCCC(=O)OC[C@H](COP(=O)(O)OCCN)OC(=O)CCCCCCCCCCCCCCCCC [C18, 1,2-Distearoyl-sn-Glycero-3-Phosphoethanolamine] | 55 °C | 0.91 | 0.95 |  |  |  |  |
| O=O [unencapsulated oxygen, oxygen] |  |  |  | 59 mmHg | 33 mmHG | 59% | 7.33 |
